Data on three substances can be found in article PMC11345766, “Computational Design of Pore-Forming Peptides with Potent Antimicrobial and Anticancer Activities” (Journal of Medicinal Chemistry, 2024).

Broadly, the MIC is the smallest concentration in the dilution series that meets the test's criterion for growth inhibition. A higher MIC goes with a need for much substance. The IC50 is the midpoint of a concentration-inhibition curve.

Ends that are not written are not given here. A value given as a limit tells only on which side of the number the result lay.

The subject of one series is E. coli ATCC 11775. The settings on record: E. coli / ATCC 11775 / Prot. d; Prot. d.
Another series deals with E. coli AIC221. The settings on record: E. coli / AIC221 / Prot. d; Prot. d.
Another series concerns E. coli AIC222 (COL). The following applies: E. coli / AIC222 / COL / Prot. d; Prot. d.
In series [1] the test system is E. coli E1098 (GEN, AMI, IMI, MER). The settings on record: E. coli / E1098 / GEN, AMI, IMI, MER / Prot. c; Prot. c.
Series [2] relates to A. baumannii (NCTC 13301). Kind of series: Murine excisional dorsal wound infection model. It counts as in vivo, mouse. The settings on record: for Survival: day 3 postinfection. As for the experimental part: To investigate wound-healing applications, two peptides (LP1 and LP18) were tested in a murine wound infection model.[57] Immunosuppressed mice were infected with 5 × 10^4 cells per mL of A. baumannii (NCTC 13301) at the excised dorsal wound. The peptides at 1000 times the MICs (∼10 mg/kg) were applied directly to the wound by puncturing the dressing with a syringe once a day for 7 days. After removal of the dressing, necrosis of the epidermal tissue at the wound edges and wound expansion were observed. These conditions were reduced in the LP1-treated group, followed by the LP18-treated, PBS-treated, and untreated groups (Figure S6a,b). Contractile wound healing appeared to be higher in the LP1-treated group compared to the other groups. After 20 days, LP1-treated wounds were either completely closed or had less than 10 mm^2 of overlying serocellular crust, whereas the other wounds had larger and more inflamed serocellular crusts.
Eight-to-ten-week-old female Balb/c mice (obtained from Envigo, Netherlands) were subjected to immunosuppression induction by two intraperitoneal doses of 150 and 100 mg/kg cyclophosphamide on days −4 and −1, respectively, before wounding. On day 0 of wounding, mice were anesthetized with isoflurane and the dorsal region was shaved and scrubbed with iodine solution. A full-thickness skin defect was created over the thoracic spine using a 6 mm disposable skin biopsy punch (KAI Industries Co., Ltd., Japan). Infection was established by applying 25 μL of A. baumannii NCTC 13301 (5 × 10^4 CFU/mL) applied directly to the wound and allowed to absorb for 2 min. Wound was covered with a transparent sterile dressing (Tegaderm, Deutschland GmbH, Germany) and secured with tissue adhesive (Surgibond, SMI AG, Belgium). Afterward, mice received an intramuscular injection of buprenorphine (0.05 mg/kg). […] From 10^–3, 10^–5, and 10^–7 dilutions, 100 μL of the sample was collected three times, incubated on MacConkey agar plates (Trios, Czech Republic), and analyzed for viable cell counts. […]

In the next series the test system is E. coli (E1098). The following applies: E1098, 18 h.
Series [3] deals with A. baumannii Z13 (GEN, AMI, IMI, MER). The following applies: A. baumannii / Z13 / GEN, AMI, IMI, MER / Prot. c; Prot. c.
The test system of series [4] is K. pneumoniae 4371 (GEN, AMI, IMI, MER). The following applies: K. pneumoniae / 4371 / GEN, AMI, IMI, MER / Prot. c; Prot. c.
Series [5] deals with normal B and T lymphocytes, granulocytes, and monocytes in whole blood. Kind of series: Viability by flow cytometric staining in whole blood. It counts as cell-based, human. The settings on record: up to the highest tested concentration of 50 μM; 16 h. The method, then: Finally, we tested the effect of LP1 and LP40 on healthy primary cells in whole blood from a healthy donor (Figure S11).
The whole blood was seeded in a 96-well plate at 200 μL/well and treated with peptides for 16 h. The samples were then stained with anti-CD3 (FITC, Sony), anti-CD14 (APC-Cy7, Sony), and anti-CD19 (PE, Beckman Coulter) antibodies and incubated for 20 min at room temperature in the dark. The cells were then incubated with red blood cell lysis buffer for 10 min at room temperature, centrifuged, resuspended in PBS containing SYTOX Blue Dead Cell Stain (Thermo Fisher Scientific) and measured using a FACSVerse flow cytometer (BD Biosciences).
For orientation: In flow cytometry, cells or beads pass a laser one at a time.

For series [6], the system named is human red blood cells (HRBCs). The settings on record: read-out: Hemolysis toxicity (IC50); 1 h incubation. The method, then:
To investigate the toxicity for normal human cells, all peptides were first screened against human red blood cells (HRBCs) using a hemolysis assay (Table 2 and Figure S4).
Hemolysis toxicity was tested against HRBCs. Blood samples, collected from the university hospital, were centrifuged twice at 700 × g and once at 1000 × g for 8 min at 4 °C to obtain erythrocyte pellets. Supernatants were always discarded, and pellets were resuspended in PBS (the same as the antimicrobial susceptibility assay). The final RBC suspension was 0.5% (v/v). Dilution series was prepared for concentrations 50 to 0.1 μM in a V-bottom 96-well plate, followed by the addition of RBC suspension. […] After 1 h of incubation at 37 °C, the well plate was centrifuged at 1000 × g for 10 min at 4 °C. The supernatant, collected in a flat-bottom well plate, was measured for OD415 using Tecan Microplate Reader Infinite F500.

As to “KKKKLKKILKKLFQFINQLDNQLQDIKKKK-NH2 [LP18]”, the MIC was found to be 1.6 µM in the series with E. coli ATCC 11775, 1.6 µM against E. coli AIC221, 1.6 µM against E. coli AIC222 (COL) and 2 µM in [1]. Also, the Survival in series [2] was 100%.
Turning to “KKKKLKKILKKLFQFINQLDNQLQDIKQNK-NH2 [LP1]”, the MIC is 1 µM against E. coli (E1098), 4 µM in series [3] and 16 µM in series [4]. The “Effect on healthy primary cells in whole blood” value in [5] was “no apparent deleterious effect”. Moreover, the Survival in series [2] came out at 100%. Moreover, in [2] (topical, 1000 times the MIC (∼10 mg/kg) once a day for 7 days, after 20 days), the “Overlying serocellular crust of wound” value is “less than 10 mm^2”.
Take “H-HHHHLKKILKKLFQFINQLDNQLQDIHHHH-OH [LP40]”: the IC50 in [6] was greater than 50 µM.
